Assay results from patent US20240239806A1, “COMPOUNDS, COMPOSITIONS AND METHODS OF TREATING DISORDERS” (Chengdu Anticancer Bioscience, Ltd., priority 2021, published 2024).
Like-named read-outs stand apart in the source and are kept apart here.

System: RPEMYC^H2B-GFP cells
Assay: Phenotypic screening assay (mitotic arrest, polyploidy)
Format: cell-based
Settings: 1 nM to 30 μM; for IC50: read-out: Proliferative arrest (>50%)
Method: We have previously developed a mechanism-informed phenotypic screening assay to identify novel antimitotic agents. Equipped with a prior understanding of the versatile functions of the chromosomal passenger protein (CPP) complex in orchestrating karyokinesis and cytokinesis, the screening assay is to score for phenotypes typically seen when the CPP complex is disabled. Specifically, the parameters for a positive hit are a temporary elevation of mitotic index (MI) at 24 hours of drug treatment and an accumulation of polyploid cells at 48 hours of drug treatment, indicative of mitotic arrest and cytokinetic failure respectively. These parameters exclude compounds that elicit only a prolonged arrest of cells in mitosis, a phenotype typically provoked by spindle toxins. The screening procedure is briefly summarized here. RPEMYC^H2B-GFP cells engineered to express a Histone 2B-EGFP fusion protein were passaged as batches of 96-well plates, 18-24 hours before exposure to the chemical compounds of the present disclosure at concentrations from 1 nM to 30 μM. At 24, 48 or 72 hours after initiation of treatment, cells were analyzed for either an arrest in mitosis or a change in DNA content by GE IN-Cell Analyzer 2000. As set forth in Table 2 below, a value of greater than or equal to 1 nM and less than or equal to 1.0 μM is marked “A”; a value greater than 1.00 μM and less than or equal to 10.0 μM is marked “B”; a value greater than 10.0 μM and less than or equal to 30.0 μM is marked “C”; and a value greater than 30.0 μM is marked “D.”

[1] = read-out: Min. Effective conc. for Polyploidy (≥5%)

**Q.** Which minimal effective concentration [1] does the source give for `NC(=O)c1ccc2nccc(Oc3cc(Cl)cc(-n4cccn4)c3)c2c1` [Compound 2, 4-(3-chloro-5-(1H-pyrazol-1-yl)phenoxy)quinoline-6-carboxamide] here?
**A.** > 30 µM

**Q.** And the minimal effective concentration (read-out: Mitotic Arrest (≥5%))?
**A.** > 30 µM

**Q.** Which results are given for `COc1cc(Oc2ccnc3ccc(Cl)cc23)cc(-n2cccn2)c1` [Compound 51, 6-Chloro-4-(3-methoxy-5-(1H-pyrazol-1-yl)phenoxy) quinoline]?
**A.** minimal effective concentration [1]: 0.001 to 1 µM; minimal effective concentration (read-out: Mitotic Arrest (≥5%)): 0.001 to 1 µM; IC50: 1 to 1000 nM

**Q.** `COc1cc(Oc2ccnc3cc(OC)c(OC)cc23)cc(-c2ncccn2)c1` [Compound 63, 6,7-Dimethoxy-4-(3-methoxy-5-(pyrimidin-2-yl)phenoxy) quinoline] was tested. Which minimal effective concentration [1] did it give?
**A.** 0.001 to 1 µM

**Q.** What about the minimal effective concentration (read-out: Mitotic Arrest (≥5%)) of the same molecule?
**A.** 0.001 to 1 µM

**Q.** What about the IC50 of the same molecule?
**A.** 1 to 1000 nM

**Q.** How did the minimal effective concentration [1] turn out when `COc1cc(Oc2ccnc3cc(OC)c(C(N)=O)cc23)cc(O[C@H]2CCOC2)c1` [Compound 80, (S)-7-methoxy-4-(3-methoxy-5-((tetrahydrofuran-3-yl)oxy)phenoxy)quinoline-6-carboxamide] was run?
**A.** 0.001 to 1 µM

**Q.** What about the minimal effective concentration (read-out: Mitotic Arrest (≥5%)) of the same molecule?
**A.** 0.001 to 1 µM

**Q.** Which minimal effective concentration [1] does the source give for `COc1cc(NC(C)=O)cc(Oc2ccnc3ccc(C(F)(F)F)cc23)c1` [Compound 55, N-(3-Methoxy-5-((6-(trifluoromethyl)quinolin-4-yl)oxy)phenyl)acetamide] here?
**A.** 0.001 to 1 µM

**Q.** What about the minimal effective concentration (read-out: Mitotic Arrest (≥5%)) of the same molecule?
**A.** 0.001 to 1 µM

**Q.** What about the IC50 of the same molecule?
**A.** 1 to 1000 nM

**Q.** With `COc1cc(Oc2cc(C)nc3ccccc23)cc(-n2cccn2)c1` [Compound 96, 4-(3-methoxy-5-(1H-pyrazol-1-yl)phenoxy)-2-methylquinoline] as the molecule, how does the minimal effective concentration [1] read?
**A.** 0.001 to 1 µM

**Q.** What about the minimal effective concentration (read-out: Mitotic Arrest (≥5%)) of the same molecule?
**A.** 0.001 to 1 µM

**Q.** Which minimal effective concentration [1] does the source give for `COc1cc(OCC2CCOC2)cc(Oc2ccnc3cc(OC)c(C(N)=O)cc23)c1` (stereo not drawn) [Compound 83, 7-methoxy-4-(3-methoxy-5-((tetrahydrofuran-3-yl)methoxy)phenoxy)quinoline-6-carboxamide] here?
**A.** 0.001 to 1 µM

**Q.** And the minimal effective concentration (read-out: Mitotic Arrest (≥5%))?
**A.** 0.001 to 1 µM

**Q.** Which minimal effective concentration [1] does the source give for `COc1cc(Oc2ncnc3ccccc23)cc(-n2cccn2)c1` [Compound 73, 4-(3-Methoxy-5-(1H-pyrazol-1-yl)phenoxy) quinazoline] here?
**A.** 10 to 30 µM

**Q.** What about the minimal effective concentration (read-out: Mitotic Arrest (≥5%)) of the same molecule?
**A.** 10 to 30 µM

**Q.** What about the IC50 of the same molecule?
**A.** 10000 to 30000 nM

**Q.** With `CCOc1cc(Oc2ccnc3ccc(C(N)=O)cc23)cc(-n2cccn2)c1` [Compound 65, 4-(3-Ethoxy-5-(MH-pyrazol-1-yl)phenoxy) quinoline-6-carboxamide] as the molecule, how does the minimal effective concentration [1] read?
**A.** 0.001 to 1 µM

**Q.** What about the minimal effective concentration (read-out: Mitotic Arrest (≥5%)) of the same molecule?
**A.** 0.001 to 1 µM

**Q.** What about the IC50 of the same molecule?
**A.** 1 to 1000 nM

**Q.** For `COc1cc(OC)cc(Oc2ccnc3ccc(-c4ccco4)cc23)c1` [Compound 47, 4-(3,5-Dimethoxyphenoxy)-6-(furan-2-yl)quinoline], which minimal effective concentration [1] is on record?
**A.** 1 to 10 µM

**Q.** What about the minimal effective concentration (read-out: Mitotic Arrest (≥5%)) of the same molecule?
**A.** 1 to 10 µM

**Q.** What about the IC50 of the same molecule?
**A.** 1000 to 10000 nM

**Q.** What does the source list for `COc1cc(Oc2ccnc3cc(OC)c(C(N)=O)cc23)cc(-c2cnn(C)c2)c1` [Compound 66, 7-Methoxy-4-(3-methoxy-5-(1-methyl-H-pyrazol-4-yl)phenoxy)quinoline-6-carboxamide]?
**A.** minimal effective concentration [1]: 0.001 to 1 µM; minimal effective concentration (read-out: Mitotic Arrest (≥5%)): 0.001 to 1 µM; IC50: 1 to 1000 nM

**Q.** `COc1cc(OC)cc(Oc2ccnc3ccc(Br)cc23)c1` [Compound 48, 6-Bromo-4-(3,5-dimethoxyphenoxy) quinoline] was tested. Which minimal effective concentration [1] did it give?
**A.** 0.001 to 1 µM

**Q.** What about the minimal effective concentration (read-out: Mitotic Arrest (≥5%)) of the same molecule?
**A.** 0.001 to 1 µM

**Q.** What about the IC50 of the same molecule?
**A.** 1 to 1000 nM

**Q.** Which results are given for `COC(=O)c1cc(OC)cc(Oc2ncnc3cc(OC)c(OC)cc23)c1` [Example 24, methyl 3-((6,7-dimethoxyquinazolin-4-yl)oxy)-5-methoxybenzoate]?
**A.** Along with Cell Death: C (a value greater than 10.0 μM and less than or equal to 30.0 μM); Min. Effective conc. for Polyploidy (≥5%): C (a value greater than 10.0 μM and less than or equal to 30.0 μM); Mitotic Arrest (≥5%): C (a value greater than 10.0 μM and less than or equal to 30.0 μM); Proliferative arrest (>50%): C (a value greater than 10.0 μM and less than or equal to 30.0 μM)

**Q.** `CNC(=O)c1ccc2nccc(Oc3cc(OC)cc(-n4cccn4)c3)c2c1` [Compound 57, 4-(3-Methoxy-5-(1H-pyrazol-1-yl)phenoxy)-N-methylquinoline-6-carboxamide] was tested. Which minimal effective concentration [1] did it give?
**A.** 0.001 to 1 µM

**Q.** What about the minimal effective concentration (read-out: Mitotic Arrest (≥5%)) of the same molecule?
**A.** 0.001 to 1 µM

**Q.** What about the IC50 of the same molecule?
**A.** 1 to 1000 nM

**Q.** What does the source list for `CNC(=O)c1cc(OC)cc(Oc2ccnc3cc(OC)c(C(N)=O)cc23)c1` [Compound 71, 7-Methoxy-4-(3-methoxy-5-(methylcarbamoyl)phenoxy) quinoline-6-carboxamide]?
**A.** minimal effective concentration [1]: 1 to 10 µM; minimal effective concentration (read-out: Mitotic Arrest (≥5%)): 1 to 10 µM; IC50: 1000 to 10000 nM

**Q.** How did the minimal effective concentration [1] turn out when `COc1cc(Oc2cc(Cl)nc3ccc(Br)cc23)cc([N+](=O)[O-])c1` [Compound 97, 4-(3-methoxy-5-nitrophenoxy)-6-bromo-2-chloroquinoline] was run?
**A.** > 30 µM

**Q.** And the minimal effective concentration (read-out: Mitotic Arrest (≥5%))?
**A.** > 30 µM

**Q.** Which results are given for `COc1cc(Oc2ccnc3cc(OC)c(C(N)=O)cc23)cc(-n2ccc(C)n2)c1` [Compound 85, 7-methoxy-4-(3-methoxy-5-(3-methyl-1H-pyrazol-1-yl)phenoxy)quinoline-6-carboxamide]?
**A.** minimal effective concentration [1]: 0.001 to 1 µM; minimal effective concentration (read-out: Mitotic Arrest (≥5%)): 0.001 to 1 µM

**Q.** Which results are given for `COc1cc(Oc2ccnc3ccc(Br)cc23)cc(OC2CCOC2)c1` (stereo not drawn) [Compound 92, 6-bromo-4-(3-methoxy-5-((tetrahydrofuran-3-yl)oxy)phenoxy)quinoline]?
**A.** minimal effective concentration [1]: 0.001 to 1 µM; minimal effective concentration (read-out: Mitotic Arrest (≥5%)): 0.001 to 1 µM

**Q.** Which minimal effective concentration [1] does the source give for `COc1cc(Oc2ccnc3cc(OC)c(Br)cc23)cc(-n2cccn2)c1` [Compound 88, 6-bromo-7-methoxy-4-(3-methoxy-5-(1H-pyrazol-1-yl)phenoxy)quinoline] here?
**A.** 0.001 to 1 µM

**Q.** And the minimal effective concentration (read-out: Mitotic Arrest (≥5%))?
**A.** 0.001 to 1 µM

**Q.** Which minimal effective concentration [1] does the source give for `CNC(=O)c1cc2c(Oc3cc(NC(C)=O)cc(OC)c3)ccnc2cc1OC` [Compound 45, 4-(3-Acetamido-5-methoxyphenoxy)-7-methoxy-N-methylquinoline-6-carboxamide] here?
**A.** 1 to 10 µM

**Q.** And the minimal effective concentration (read-out: Mitotic Arrest (≥5%))?
**A.** 1 to 10 µM

**Q.** What about the IC50 of the same molecule?
**A.** 1000 to 10000 nM

**Q.** How did the minimal effective concentration [1] turn out when `[2H]c1cc(Oc2cc(OC)cc([N+](=O)[O-])c2)c2cc(Br)ccc2n1` [Compound 98] was run?
**A.** 1 to 10 µM

**Q.** And the minimal effective concentration (read-out: Mitotic Arrest (≥5%))?
**A.** 1 to 10 µM

**Q.** Which minimal effective concentration [1] does the source give for `COc1cc(OC)cc(Oc2ncnc3ccn(C)c23)c1` [Compound 54, 4-(3,5-Dimethoxyphenoxy)-5-methyl-5H-pyrrolo[3,2-d] pyrimidine] here?
**A.** 10 to 30 µM

**Q.** What about the minimal effective concentration (read-out: Mitotic Arrest (≥5%)) of the same molecule?
**A.** 1 to 10 µM

**Q.** And the IC50?
**A.** 10000 to 30000 nM

**Q.** Which minimal effective concentration [1] does the source give for `COc1cc(Oc2ccnc3ccc(Br)cc23)cc(-c2nc(C)no2)c1` [Compound 67, 5-(3-((6-Bromoquinolin-4-yl)oxy)-5-methoyphenyl)-3-methyl-1,2,4-oxadiazole] here?
**A.** 0.001 to 1 µM

**Q.** What about the minimal effective concentration (read-out: Mitotic Arrest (≥5%)) of the same molecule?
**A.** 0.001 to 1 µM

**Q.** What about the IC50 of the same molecule?
**A.** 1 to 1000 nM

**Q.** What does the source list for `COc1cc(Oc2ccnc3cc(OC)c(C(N)=O)cc23)cc(OC2CCOC2)c1` (stereo not drawn) [Compound 6, 7-methoxy-4-(3-methoxy-5-((tetrahydrofuran-3-yl)oxy)phenoxy)quinoline-6-carboxamide]?
**A.** minimal effective concentration [1]: 0.001 to 1 µM; minimal effective concentration (read-out: Mitotic Arrest (≥5%)): 0.001 to 1 µM

**Q.** How did the minimal effective concentration [1] turn out when `COc1cc(OC)cc(Oc2ccnc3cc(OC)c(C(N)=O)cc23)c1` [Compound 69, 4-(3,5-Dimethoxyphenoxy)-7-methoxyquinolin-6-carboxamide] was run?
**A.** 0.001 to 1 µM

**Q.** What about the minimal effective concentration (read-out: Mitotic Arrest (≥5%)) of the same molecule?
**A.** 0.001 to 1 µM

**Q.** What about the IC50 of the same molecule?
**A.** 1 to 1000 nM

**Q.** Which minimal effective concentration [1] does the source give for `COc1cc(NC(C)=O)cc(Oc2ncnc3ccn(C)c23)c1` [Compound 56, N-(3-methoxy-5-((5-methyl-5H-pyrrolo[3,2-d]pyrimidin-4-yl)oxy)phenyl) acetamide] here?
**A.** 10 to 30 µM

**Q.** And the minimal effective concentration (read-out: Mitotic Arrest (≥5%))?
**A.** 1 to 10 µM

**Q.** And the IC50?
**A.** 10000 to 30000 nM
